Assay results from PMC10149936, “Cofilin activation in pancreatic acinar cells plays a pivotal convergent role for mediating CCK-stimulated enzyme secretion and growth” (Frontiers in Physiology, 2023).

How the values were obtained:
PP2A = conditions: cited from earlier work
From the text: (§1) Because our results differ from the general finding that the two major signaling cascades in other tissues mediating cofilin activity, which involve alterations in LIMK and/or SSH1 activity ([Wang et al., 2005]; [Spratley et al., 2011]; [Mizuno, 2013]; [Ohashi, 2015]; [Xu et al., 2021]), were not important in mediating CCK’s activation of cofilin in pancreatic acini, we explored the possible involvement of other phosphatases that have been reported to participate in cofilin activation in other tissues with other stimulants. The activation of the serine/threonine phosphatases type 1 (PP1) or ty ...

PP2A / PP1 = conditions: low concentrations; ref Ishihara et al., 1989; Takai et al., 1992; Lutz et al., 1993; Schmidt et al., 1994; Walsh et al., 1997; cited from earlier work
From the text: (Figures 5, 6) In human T lymphocytes, neurons, the 293 T cell line (human embryonic kidney 293 cells) and HeLa cells, it is reported that activation of cofilin can occur due its dephosphorylation through the co-stimulation activation of accessory receptors (e.g.,.CD2, CD3 or CD28) by CD3xCD28 mAb, with Endothelin-1 (ET-1), and the Ca^2+ ionophore A23187, which is mediated by activation of serine protein phosphatases ([Ambach et al., 2000]; [Wang et al., 2005]; [Tam et al., 2019]). Therefore, to explores the possible role of the protein phosphatases PP1, PP2A, PP2B in CCK-8-induced activation ...

[1] = test system: cofilin (pS3) in rat pancreatic acini; experiment: cofilin activation (phospho-pS3 cofilin Western blot) in isolated rat pancreatic acini; type: cell-based
Procedure: Pancreatic acini preparations were obtained by collagenase digestion as previously described ([Bissonnette et al., 1984]; [Sato et al., 1989]; [Ramos-Alvarez and Jensen, 2018]). After collagenase digestion, dispersed acini were preincubated with different inhibitors in standard incubation solution ([Ramos-Alvarez and Jensen, 2018]; [Ramos-Ãlvarez et al., 2020]) for 3 h at 37°C under conditions specific for PKD/PKC, Src, PI3K, MAPKs, SSH1, LIMK, cofilin, other phosphatases and PAK4 inhibitors, as described previously ([Ramos-Alvarez and Jensen, 2018]; [Ramos-Ãlvarez et al., 2020]). Isolated acini and CCK1-R/Panc-1 cells (M&M 2.2.1) were also preincubated with two SSH1 inhibitors, D3 (25 μM, 1 h) ([Li et al., 2015]) or SE (50 μM, 3 h for acini; 24 h for CCK1-R/Panc-1 cells) ([Lee et al., 2017]). After preincubation, 1 mL aliquots of dispersed acini were incubated at 37°C for 3–15 min with CCK-8 (0.3 nM or 100 nM), for 5–15 min with TPA (1 µM) or without stimulants, used as control. Cells were lysed in lysis buffer (50 mM Tris/HCl pH 7.5, 150 mM NaCl, 1% Triton X-100, 1% deoxycholate, 0.1% sodium azide, 1 mM EGTA, 0.4 mM EDTA, 0.2 mM sodium orthovanadate, 1 mM PMSF, and one protease inhibitor tablet per 10 mL). After sonication, lysates were centrifuged at 10,000×g for 15 min at 4°C and protein concentration was measured using the Bio-Rad protein assay reagent. Finally, cells were processed as below for Western blotting.
Both concentrations of CCK-8 were used because CCK-8 is reported to have different responses with physiological and supraphysiological concentrations contributing to physiological and pathophysiological processes such as pancreatitis ([Dufresne et al., 2006]).
Western blotting and immunoprecipitation were performed as described previously ([Ramos-Alvarez and Jensen, 2018]). Whole cell lysates were subjected to SDS-PAGE using 4%–20% Tris–Glycine gels. […] Finally, membranes were then washed again twice in blocking buffer for 4 min, twice in washing buffer for 4 min, incubated for 4 min with chemiluminescence detection reagents. The intensity of the protein bands was measured using GeneTools software from Syngene, which were assessed in the linear detection range.
All experiments were performed at least 3 times. Data are presented as mean ± SEM and were analyzed with the non-parametric Kruskal–Wallis analysis (data was not normally distributed) and the Dunn’s multiple comparison test using the GraphPad Prism 8.0 software. P values < 0.05 were considered significant.
(A) Isolated pancreatic acini were incubated in the absence or presence of CCK-8 (100 nM), carbachol (1 μM), bombesin (1 nM), secretin (1 nM) or VIP (1 nM) for 1 min and then lysed. (B) Isolated pancreatic acini were incubated in the absence or presence of CCK-8 and CCK-JMV (at the indicate concentrations) for 3 min and then lysed. Western blots were analyzed using anti-pS3 cofilin, which mediates the activation state of cofilin. Bands were visualized using chemiluminescence and quantified by densitometry.

parotid acinar cells = test system: parotid acinar cells; parameters: method as in Tamaki and Yamashina, 2002; conditions: ref Tamaki and Yamashina, 2002; cited from earlier work
pancreas = test system: pancreas; parameters: method as in Waschulewski et al., 1996; conditions: ref Waschulewski et al., 1996; cited from earlier work
[2] = test system: cofilin in human T lymphocytes; conditions: stimulated by CD2 or CD28; ref Ambach et al., 2000; cited from earlier work
From the text: as §1

JNK1-3 = conditions: reversible ATP-competitive; reference not given; cited from earlier work
From the text: (Figure 10) In various tissues with difference stimuli, cofilin dephosphorylation and activation, has been reported to be mediated by PI3K, ROCK and various MAPKs (p38, p44/42, JNK) ([Won et al., 2008]; [Duan et al., 2014]), therefore we assessed their possible role in CCK-8-stimulated cofilin activation. Previous studies have shown that, in pancreatic acini and/or other tissues, CCK-8 activates each of these signaling cascades ([Berna et al., 2009]; [Camello-Almaraz et al., 2009]; [Ramos-Alvarez and Jensen, 2018]; [Ramos-Ãlvarez et al., 2020]). In order to address the role of these signal cas ...

C=C1[C@@H](O)[C@@H]2O[C@]3(CC[C@H](/C=C/[C@@H](C)[C@@H]4CC(C)=C[C@@]5(O[C@H](C[C@@](C)(O)C(=O)O)CC[C@H]5O)O4)O3)CC[C@H]2O[C@@H]1[C@@H](O)C[C@H](C)[C@H]1O[C@@]2(CCCCO2)CC[C@H]1C [okadaic acid]
phosphatase selectivity in pancreatic acini (PP2A; nanomolar concentrations, pancreatic acini, ref Wagner et al., 1992): only inhibit PP2A
IC50 (PP2A; pancreatic acinar cells, ref Lutz et al., 1993, read-out: IC50, CCK1R-stimulated phosphatase activity (PP2A) in cytosol of pancreatic acinar cells): 0.2 nM
greater inhibitory effect on PP2A over PP1 (PP2A / PP1): 50-250 fold
decrease of basal level of cofilin phosphorylation ([1]; calyculin A 1 nM or okadaic acid 10 nM, 3 h, no stimulant): 12%
inhibition of cofilin activation stimulated by CCK-8 ([1]; calyculin A 1 nM or okadaic acid 10 nM, 3 h, CCK-8 0.3 and 100 nM 3 min): completely inhibited
effect on amylase release in parotid acinar cells (parotid acinar cells): disrupted amylase release in parotid acinar cells
effect on stimulated enzyme secretion in pancreas (pancreas): completely blocked stimulated enzyme secretion in pancreas

C=CC[C@@H]1/C=C(\C)C[C@H](C)C[C@H](OC)[C@H]2O[C@@](O)(C(=O)C(=O)N3CCCC[C@H]3C(=O)O[C@H](/C(C)=C/[C@@H]3CC[C@@H](O)[C@H](OC)C3)[C@H](C)[C@@H](O)CC1=O)[C@H](C)C[C@@H]2OC [FK-506]
effect on dephosphorylation of cofilin in human T lymphocytes [2]: did not affect the dephosphorylation of cofilin in human T lymphocytes
effect on CCK-8 or TPA's activation of cofilin ([1]; FK-506 10 µM 3 h, CCK-8 0.3 and 100 nM 3 min, TPA 1 µM 5 min): had no effect

Oc1c2ccccc2c2c3c(cccc13)N=N2 [SP600125]
IC50 (JNK1-3): 110 nM
reversal of cofilin dephosphorylation by CCK-8 ([1]; Wortmannin 1 µM, LY294002 100 µM, SB202190 10 µM, U0126 10 µM, Y-27632 10 µM 1 h, SP600125 20 µM 3 h, CCK-8 0.3 and 100 nM 3 min): completely reversed
